As a reminder, the IC50 is the concentration that gives 50% inhibition. As usually defined, the Ki is the equilibrium dissociation constant of an inhibitor or competing ligand from its target. High values mean lower affinity, low ones higher affinity. In general, Vmax refers to the rate approached at saturating substrate. By melting point is commonly meant the temperature of the solid-liquid transition.

Experimental findings from publication PMC9311798, “A Novel Class of Potent Anti-Tyrosinase Compounds with Antioxidant Activity, 2-(Substituted phenyl)-5-(trifluoromethyl)benzo[d]thiazoles: In Vitro and In Silico Insights” (Antioxidants, 2022) are described below.

Series [1] deals with T1, mushroom tyrosinase (Agaricus bisporus, UniProt C7FF04).
T1 construct: purchased Sigma-Aldrich
The experiment in a line: Mushroom tyrosinase inhibition assay. It is filed as biochemical. The note with it: L-tyrosine as substrate. How it is done:
Mushroom tyrosinase inhibitory activity was determined as described previously, with minor modifications. L-Tyrosine was used as a substrate to determine enzyme activities. […] These dose-dependent inhibition experiments were carried out three times using three to five different concentrations of test compounds to determine IC50 values. Log–linear curves and their equations were derived from the observed percentages of inhibition.
Target sequence in this assay (C7FF04 1-392 limits assumed): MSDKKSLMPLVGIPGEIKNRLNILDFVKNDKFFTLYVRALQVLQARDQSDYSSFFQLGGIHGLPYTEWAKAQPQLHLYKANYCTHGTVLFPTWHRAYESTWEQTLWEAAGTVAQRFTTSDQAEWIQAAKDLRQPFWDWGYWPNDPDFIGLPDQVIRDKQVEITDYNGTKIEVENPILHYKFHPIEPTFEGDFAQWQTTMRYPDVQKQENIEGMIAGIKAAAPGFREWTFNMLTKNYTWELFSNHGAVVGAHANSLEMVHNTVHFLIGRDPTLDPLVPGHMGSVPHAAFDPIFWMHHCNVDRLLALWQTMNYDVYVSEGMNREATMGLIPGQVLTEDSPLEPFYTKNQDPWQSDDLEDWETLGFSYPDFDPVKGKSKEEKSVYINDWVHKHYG

For series [2], the target named is T1, mushroom tyrosinase. Nature of the series: Kinetic studies on the inhibition of mushroom tyrosinase (Lineweaver–Burk and Dixon plots). It is filed as biochemical. The note with it: for Inhibition type: Lineweaver–Burk plots; for Ki: Dixon plot; for Vmax: regardless of 1b concentration. As for the experimental part:
Lineweaver–Burk plots of compound 1b were acquired in the presence of L-tyrosine or L-DOPA as substrates. In brief, 10 µL aliquots of DMSO containing compound 1b (final concentrations: 0, 0.1, 0.2, or 0.4 µM in L-tyrosine, and 0, 1, 2, or 4 μM in L-DOPA) were added to the wells of a 96-well plate containing 170 µL of an aqueous solution (final concentrations: 1.0, 2.0, 4.0, 8.0, or 16.0 mM) of L-tyrosine or L-DOPA, sodium phosphate buffer (final concentration: 14.7 mM, pH 6.5), and 20 µL of mushroom tyrosinase (200 units/mL). Initial rates of dopachrome production were determined by measuring the increases in optical density at 475 nm (ΔOD475/min) using a microplate reader (VersaMax^TM, Molecular Devices, Sunnyvale, CA, USA). Maximal velocity (Vmax) was obtained from Lineweaver–Burk plots obtained using five different L-tyrosine or L-DOPA concentrations. Modes of tyrosinase inhibition were determined using plot convergence points.
Target sequence in this assay (C7FF04 1-392): as the sequence (C7FF04 1-392 limits assumed) above

Series [3] has as its target T2, cellular tyrosinase in B16F10 cells (Mus musculus, UniProt P11344).
T2 construct: endogenous in cells; host or cells: B16F10 murine melanoma cells, stimulated with alpha-MSH and IBMX
T2 sequence (P11344 19-533): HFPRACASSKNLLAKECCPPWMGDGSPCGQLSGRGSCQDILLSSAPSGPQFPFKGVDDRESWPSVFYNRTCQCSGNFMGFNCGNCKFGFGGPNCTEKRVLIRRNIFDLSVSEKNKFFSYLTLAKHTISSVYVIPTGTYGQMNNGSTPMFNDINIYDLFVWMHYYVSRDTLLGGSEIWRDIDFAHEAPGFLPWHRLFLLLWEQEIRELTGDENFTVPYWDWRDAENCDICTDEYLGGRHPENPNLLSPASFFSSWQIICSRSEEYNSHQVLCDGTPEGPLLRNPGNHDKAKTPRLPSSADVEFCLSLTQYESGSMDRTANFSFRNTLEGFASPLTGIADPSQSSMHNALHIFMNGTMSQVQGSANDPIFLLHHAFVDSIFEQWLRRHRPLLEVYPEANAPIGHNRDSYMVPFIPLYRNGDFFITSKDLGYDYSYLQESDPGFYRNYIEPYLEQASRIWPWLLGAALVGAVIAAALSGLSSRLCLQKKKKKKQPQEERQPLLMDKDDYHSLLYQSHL
The experiment in a line: Cellular tyrosinase activity (L-DOPA oxidation) in α-MSH/IBMX-stimulated cells. It counts as cell-based, murine. As for the experimental part:
Cellular tyrosinase activity was assessed by measuring the oxidation rate of L-DOPA as previously described, with minor modifications. In brief, B16F10 cells were seeded in a 6-well plate at 1 × 10^5 cells/well, and allowed to adhere to well bottoms for 24 h, as described in Section 2.3.5. […]. Cells were then rinsed twice with PBS, exposed to 100 µL of lysis buffer solution (90 µL of 50 mM phosphate buffer (pH 6.5), 5 µL of 2 mM PMSF, and 5 µL of 20% Triton X-100), and lysed at −80 °C for 30 min. After defrosting, cell lysates were transferred to microcentrifuge tubes and centrifuged at 12,000 rpm for 30 min at 4°C, and supernatants (80 µL) were mixed with 20 µL of L-DOPA (2 mg/mL) in a 96-well plate, and incubated for 10 min at 37 °C. Absorbances were measured at 475 nm using a microplate reader (VersaMax^TM, Molecular Devices, Sunnyvale, CA, USA).

Series [4] has as its system TRP-1, TRP-2, and tyrosinase mRNA in B16F10 cells. The experiment in a line: qRT-PCR of melanogenesis-related genes. It counts as cell-based, murine. The note with it: 24 h; GAPDH internal control; versus untreated controls. How it is done: Total RNAs from cells were extracted using the RiboEx Total RNA solution (GeneAll Biotechnology, Seoul, Korea). Cells in 6-well plates (0.5 mL, 1 × 10^5 cells per well) were transferred to tubes, to which chloroform (0.1 mL) was added, and shaken vigorously for 30 s. Aqueous phases were transferred to fresh tubes, and an equal volume of isopropanol was added. Samples were then incubated for 15 min at 4 °C and centrifuged at 12,000× g for 15 min at 4 °C. After discarding the supernatants, RNA pellets were washed once with 0.5 mL of 75% ethanol, vortexed briefly, and centrifuged at 7500× g for 5 min at 4 °C. Pellets were dried for 10–15 min and dissolved in diethyl pyrocarbonate (DEPC)-treated water. Complementary DNA (cDNA) was synthesized from the total RNA (2 µg) using SuPrime Script RT Premix with random hexamer cDNA Synthesis Kit (GeNet Bio, Daejeon, Korea), in accordance with the manufacturers’ instructions. Quantitative qRT-PCR amplification was performed using SensiFAST^TM SYBR® No-ROX dye (Bioline, London, UK) on the CFX Connect System (Bio-Rad Laboratories, Hercules, CA, USA). The primers specific to TRP-1, TRP-2, tyrosinase, or GAPDH were purchased from Bioneer Inc. (Daejeon, Korea). Relative gene expressions were assessed using GAPDH as the internal control.
A general note: In qPCR the cycle at which signal appears reflects the starting amount.

Series [5] in a line: ABTS radical scavenging activity assay. Particulars: 100 µM, 2 min in the dark. As for the experimental part: At 734 nm, optical densities of the solutions were measured using a microplate reader (VersaMax^TM, Molecular Devices, Sunnyvale, CA, USA). The ABTS radical scavenging capacities of the 16 2-arylbenzothiazole derivatives were compared with trolox. All experiments were performed independently in triplicate.

Entries after “also recorded” stand apart in the source; their conditions may differ.

Consider `Oc1ccc(-c2nc3cc(C(F)(F)F)ccc3s2)c(O)c1` [Compound 1b, 4-(5-(Trifluoromethyl)benzo[d]thiazol-2-yl)benzene-1,3-diol], for which the melting point lay in the range of 236.2 to 238.2 °C. The compound further showed an IC50 on mushroom tyrosinase [1] of 0.2 ± 0.01 µM. In addition, the “potency relative to kojic acid (fold more potent)” value at mushroom tyrosinase [1] (IC50 versus kojic acid) turned out to be 55 fold. At mushroom tyrosinase [1] (versus 1a), the “increase of anti-tyrosinase activity relative to 1a” value is reported as 240 fold. The Inhibition type result on mushroom tyrosinase [2] (L-DOPA as substrate) was “competitive inhibitor; also recorded: L-DOPA (Inhibition Type ^a: Competitive)”. Also, at mushroom tyrosinase [2] (L-DOPA), the affinity, expressed as Ki, was 2450 nM and the “Vmax” value turned out to be 0.00497 mM/min. In addition, the Inhibition type result at mushroom tyrosinase [2] (L-tyrosine as substrate) was “competitive inhibitor; also recorded: L-Tyrosine (Inhibition Type ^a: Competitive)”. For the same compound, on mushroom tyrosinase [2] (L-tyrosine), affinity was put at a Ki of 37.6 nM and the “Vmax” value worked out at 0.0101 mM/min. Further, the cellular tyrosinase activity result in series [3] (10 µM, compared with kojic acid 20 µM) is reported as “reduced tyrosinase activity to that achieved by 20 µM kojic acid”. Further, the cellular tyrosinase activity result in series [3] (20 µM) is “reduced tyrosinase activity to the untreated control level”. Besides, the “effect on cellular tyrosinase activity” value in series [3] (5, 10, 20 µM, IBMX + α-MSH, 48 h) was “significantly and concentration-dependently suppressed”. Also, the “mRNA expression levels of the three MITF target genes (TRP-1, TRP-2, tyrosinase)” value in series [4] was “significantly and concentration-dependently suppressed”. For the same compound, the “ABTS radical scavenging activity (in words)” value in series [5] was “potently scavenged the ABTS radical”. For the same compound, the “ABTS free radical scavenged (%)” value in series [5] (734 nm) came out at 75%.
